Experimental data: patent US20080021026A1, “BENZOTHIOPHENE INHIBITORS OF RHO KINASE” (priority 2006, published 2008)
Read-outs that look alike come from different tables or passages of the source.

Assays:
[1] = biological target: T1, recombinant N-terminal GST-tagged human Rho kinase 2 (ROCK2, amino acids 1-552) (Homo sapiens, UniProt O75116); experiment: In vitro Rho kinase assay (luciferase-based ATP consumption), ROCK2; type: biochemical
T1 construct: ROCK2, amino acids 1-552; purchased Invitrogen Inc. PV3759
T1 sequence (O75116 1-552): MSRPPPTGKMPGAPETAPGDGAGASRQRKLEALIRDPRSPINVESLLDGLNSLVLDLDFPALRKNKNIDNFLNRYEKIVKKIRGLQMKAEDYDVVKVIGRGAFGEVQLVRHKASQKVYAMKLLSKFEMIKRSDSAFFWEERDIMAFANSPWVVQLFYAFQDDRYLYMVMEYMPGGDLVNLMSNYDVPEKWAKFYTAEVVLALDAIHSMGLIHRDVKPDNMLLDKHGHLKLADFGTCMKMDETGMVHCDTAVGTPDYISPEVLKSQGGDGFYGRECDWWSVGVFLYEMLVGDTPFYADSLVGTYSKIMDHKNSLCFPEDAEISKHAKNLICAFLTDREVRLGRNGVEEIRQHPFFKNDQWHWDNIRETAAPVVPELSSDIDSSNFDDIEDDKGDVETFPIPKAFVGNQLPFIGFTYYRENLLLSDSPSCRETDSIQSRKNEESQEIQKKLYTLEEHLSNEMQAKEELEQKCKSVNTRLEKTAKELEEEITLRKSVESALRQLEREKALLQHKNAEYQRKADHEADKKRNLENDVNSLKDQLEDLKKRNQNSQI
Outline: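 Luciferase-based luminescence of leftover ATP after 2 h at 30 °C, where inhibition raises signal, reports activity of GST-tagged ROCK2 (aa 1-552) at 0.82 μg/ml. Conditions: S6 peptide 100 μg/ml, […], pH 7.5 Tris buffer. Results given as percent of H-1152P control activity.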

[2] = biological target: T2, recombinant N-terminal GST-tagged human Rho kinase 1 (ROCK1, amino acids 1-535) (Homo sapiens, UniProt Q13464); experiment: In vitro Rho kinase assay (luciferase-based ATP consumption), ROCK1; type: biochemical
T2 construct: ROCK1, amino acids 1-535; purchased Invitrogen Inc. PV-3691
T2 sequence (Q13464 1-535): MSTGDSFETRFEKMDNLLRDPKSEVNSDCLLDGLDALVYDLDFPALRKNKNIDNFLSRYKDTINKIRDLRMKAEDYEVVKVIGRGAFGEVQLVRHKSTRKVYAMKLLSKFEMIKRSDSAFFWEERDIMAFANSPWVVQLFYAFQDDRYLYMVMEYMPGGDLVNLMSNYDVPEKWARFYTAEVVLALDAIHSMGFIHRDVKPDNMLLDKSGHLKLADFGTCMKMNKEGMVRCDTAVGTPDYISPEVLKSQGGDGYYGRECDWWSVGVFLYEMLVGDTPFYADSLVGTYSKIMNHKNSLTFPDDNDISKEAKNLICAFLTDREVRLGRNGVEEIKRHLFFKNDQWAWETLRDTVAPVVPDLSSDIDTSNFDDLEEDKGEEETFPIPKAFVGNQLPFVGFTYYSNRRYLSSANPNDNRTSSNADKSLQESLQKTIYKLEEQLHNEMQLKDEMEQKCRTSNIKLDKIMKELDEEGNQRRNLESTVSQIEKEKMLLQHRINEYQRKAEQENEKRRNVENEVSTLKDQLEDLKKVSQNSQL
Outline: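 ATP depletion measured by firefly luciferase luminescence after 2 h at 30 °C, with inhibition raising signal and activity expressed relative to H-1152P. Reaction: 0.82 μg/ml recombinant GST-tagged ROCK1 (aa 1-535), S6 peptide 100 μg/ml, […], pH 7.5 Tris buffer.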

[3] = recombinant GST-tagged human ROCK2, luciferase-based ATP consumption, read-out: ROCK2 IC50
[4] = recombinant GST-tagged human ROCK1, luciferase-based ATP consumption, read-out: ROCK1 IC50

IC50 [1, 3] | IC50 [2, 4] | SMILES | IC50 ([1]; ROCK2 IC50, recombinant GST-tagged human ROCK2, luciferase-based ATP consumption) | IC50 ([2]; ROCK1 IC50, recombinant GST-tagged human ROCK1, luciferase-based ATP consumption)
< 5 µM | < 5 µM | Cc1c(-c2ccnc(N)n2)sc2ccc(CNC(=O)C=Cc3ccccc3)cc12 [Example 128, Cc1c(sc2ccc(CNC(═O)C═Cc3ccccc3)cc12)-c4ccnc(N)n4] |  | 
< 5 µM | < 5 µM | Cc1c(-c2ccnc(N)n2)sc2ccc(CNC(=O)c3ccccc3C=O)cc12 [Example 129, Cc1c(sc2ccc(CNC(═O)c3ccccc3C═O)cc12)-c4ccnc(N)n4] |  | 
< 5 µM | < 5 µM | Cc1c(-c2ccnc(N)n2)sc2ccc(CNC(=O)c3ccc(C=O)cc3)cc12 [Example 130, Cc1c(sc2ccc(CNC(═O)c3ccc(C═O)cc3)cc12)-c4ccnc(N)n4] |  | 
< 5 µM | < 5 µM | Cc1ccc(C(=O)NCc2ccc3sc(-c4ccnc(N)n4)c(C)c3c2)c(C)c1 [Example 131, Cc1ccc(c(C)c1)C(═O)NCc2ccc3sc(c(C)c3c2)-c4ccnc(N)n4] |  | 
< 5 µM | < 5 µM | Cc1ccccc1CC(=O)NCc1ccc2sc(-c3ccnc(N)n3)c(C)c2c1 [Example 132, Cc1ccccc1CC(═O)NCc2ccc3sc(c(C)c3c2)-c4ccnc(N)n4] |  | 
< 5 µM | < 5 µM | Cc1cccc(C(=O)NCc2ccc3sc(-c4ccnc(N)n4)c(C)c3c2)c1C [Example 133, Cc1cccc(c1C)C(═O)NCc2ccc3sc(c(C)c3c2)-c4ccnc(N)n4] |  | 
< 5 µM | < 5 µM | Cc1ccc(C)c(C(=O)NCc2ccc3sc(-c4ccnc(N)n4)c(C)c3c2)c1 [Example 134, Cc1ccc(C)c(c1)C(═O)NCc2ccc3sc(c(C)c3c2)-c4ccnc(N)n4] |  | 
> 5 µM | > 5 µM | Cc1cc(C)cc(C(=O)NCc2ccc3sc(-c4ccnc(N)n4)c(C)c3c2)c1 [Example 135, Cc1cc(C)cc(c1)C(═O)NCc2ccc3sc(c(C)c3c2)-c4ccnc(N)n4] |  | 
> 5 µM | > 5 µM | Cc1ccc(C(=O)NCc2ccc3sc(-c4ccnc(N)n4)c(C)c3c2)cc1C [Example 136, Cc1ccc(cc1C)C(═O)NCc2ccc3sc(c(C)c3c2)-c4ccnc(N)n4] |  | 
< 5 µM | > 5 µM | Cc1cccc(C(=O)NCc2ccc3sc(-c4ccnc(N)n4)c(C)c3c2)c1O [Example 139, Cc1cccc(C(═O)NCc2ccc3sc(c(C)c3c2)-c4ccnc(N)n4)c1O] |  | 
< 5 µM | > 5 µM | Cc1c(-c2ccnc(N)n2)sc2ccc(CNC(=O)Cc3cccc(O)c3)cc12 [Example 140, Cc1c(sc2ccc(CNC(═O)Cc3cccc(O)c3)cc12)-c4ccnc(N)n4] |  | 
< 5 µM | > 5 µM | Cc1ccc(O)c(C(=O)NCc2ccc3sc(-c4ccnc(N)n4)c(C)c3c2)c1 [Example 141, Cc1ccc(O)c(c1)C(═O)NCc2ccc3sc(c(C)c3c2)-c4ccnc(N)n4] |  | 
< 5 µM | > 5 µM | Cc1c(-c2ccnc(N)n2)sc2ccc(CNC(=O)c3cc(O)ccc3O)cc12 [Example 142, Cc1c(sc2ccc(CNC(═O)c3cc(O)ccc3O)cc12)-c4ccnc(N)n4] |  | 
< 5 µM | > 5 µM | Cc1c(-c2ccnc(N)n2)sc2ccc(CNC(=O)c3cccc(O)c3O)cc12 [Example 143, Cc1c(sc2ccc(CNC(═O)c3cccc(O)c3O)cc12)-c4ccnc(N)n4] |  | 
< 5 µM | > 5 µM | Cc1c(-c2ccnc(N)n2)sc2ccc(CNC(=O)c3ccc(O)cc3O)cc12 [Example 144, Cc1c(sc2ccc(CNC(═O)c3ccc(O)cc3O)cc12)-c4ccnc(N)n4] |  | 
< 5 µM | > 5 µM | Cc1ccc(C(=O)NCc2ccc3sc(-c4ccnc(N)n4)c(C)c3c2)cc1F [Example 145, Cc1ccc(cc1F)C(═O)NCc2ccc3sc(c(C)c3c2)-c4ccnc(N)n4] |  | 
< 5 µM | > 5 µM | Cc1ccc(F)cc1C(=O)NCc1ccc2sc(-c3ccnc(N)n3)c(C)c2c1 [Example 146, Cc1ccc(F)cc1C(═O)NCc2ccc3sc(c(C)c3c2)-c4ccnc(N)n4] |  | 

More lines, now with the values behind:

SMILES | IC50 [1, 3] | IC50 [2, 4] | IC50 ([1]; ROCK2 IC50, recombinant GST-tagged human ROCK2, luciferase-based ATP consumption) | IC50 ([2]; ROCK1 IC50, recombinant GST-tagged human ROCK1, luciferase-based ATP consumption)
Cc1c(-c2ccnc(N)n2)sc2ccc(CNC(=O)C3CCCO3)cc12 (stereo not drawn) [Example 106, Cc1c(sc2ccc(CNC(═O)C3CCCO3)cc12)-c4ccnc(N)n4] | < 5 µM | > 5 µM |  | 
CC(=O)NCC(=O)NCc1ccc2sc(-c3ccnc(N)n3)c(C)c2c1 [Example 107, CC(═O)NCC(═O)NCc1ccc2sc(c(C)c2c1)-c3ccnc(N)n3] | < 5 µM | > 5 µM |  | 
Cc1c(-c2ccnc(N)n2)sc2ccc(CNC(=O)c3ccccc3)cc12 [Example 108, Cc1c(sc2ccc(CNC(═O)c3ccccc3)cc12)-c4ccnc(N)n4] | > 5 µM | < 5 µM |  | 
Cc1c(-c2ccnc(N)n2)sc2ccc(CNC(=O)c3cccnc3)cc12 [Example 109, Cc1c(sc2ccc(CNC(═O)c3cccnc3)cc12)-c4ccnc(N)n4] | < 5 µM | > 5 µM |  | 
Cc1c(-c2ccnc(N)n2)sc2ccc(CNC(=O)c3ccncc3)cc12 [Example 110, Cc1c(sc2ccc(CNC(═O)c3ccncc3)cc12)-c4ccnc(N)n4] | < 5 µM | > 5 µM |  | 
Cc1c(-c2ccnc(N)n2)sc2ccc(CNC(=O)c3ccccn3)cc12 [Example 111, Cc1c(sc2ccc(CNC(═O)c3ccccn3)cc12)-c4ccnc(N)n4] | < 5 µM | > 5 µM |  | 
Cc1c(-c2ccnc(N)n2)sc2ccc(CNC(=O)C(O)CCl)cc12 (stereo not drawn) [Example 112, Cc1c(sc2ccc(CNC(═O)C(O)CCl)cc12)-c3ccnc(N)n3] | < 5 µM | > 5 µM |  | 
Cc1cc(C(=O)NCc2ccc3sc(-c4ccnc(N)n4)c(C)c3c2)n[nH]1 [Example 113, Cc1cc(n[nH]1)C(═O)NCc2ccc3sc(c(C)c3c2)-c4ccnc(N)n4] | < 5 µM | > 5 µM |  | 
Cc1c(-c2ccnc(N)n2)sc2ccc(CNC(=O)c3cn(C)cn3)cc12 [Example 114, Cc1c(sc2ccc(CNC(═O)c3cn(C)cn3)cc12)-c4ccnc(N)n4] | < 5 µM | > 5 µM |  | 
Cc1c(-c2ccnc(N)n2)sc2ccc(CNC(=O)C3CCCCC3)cc12 [Example 115, Cc1c(sc2ccc(CNC(═O)C3CCCCC3)cc12)-c4ccnc(N)n4] | < 5 µM | > 5 µM |  | 
Cc1c(-c2ccnc(N)n2)sc2ccc(CNC(=O)c3cscn3)cc12 [Example 116, Cc1c(sc2ccc(CNC(═O)c3cscn3)cc12)-c4ccnc(N)n4] | < 5 µM | > 5 µM |  | 
CCOC(=O)CC(=O)NCc1ccc2sc(-c3ccnc(N)n3)c(C)c2c1 [Example 117, CCOC(═O)CC(═O)NCc1ccc2sc(c(C)c2c1)-c3ccnc(N)n3] | < 5 µM | > 5 µM |  | 
Cc1cccc(C(=O)NCc2ccc3sc(-c4ccnc(N)n4)c(C)c3c2)c1 [Example 118, Cc1cccc(c1)C(═O)NCc2ccc3sc(c(C)c3c2)-c4ccnc(N)n4] | > 5 µM | > 5 µM |  | 
Cc1ccccc1C(=O)NCc1ccc2sc(-c3ccnc(N)n3)c(C)c2c1 [Example 119, Cc1ccccc1C(═O)NCc2ccc3sc(c(C)c3c2)-c4ccnc(N)n4] | < 5 µM | > 5 µM |  | 
Cc1ccc(C(=O)NCc2ccc3sc(-c4ccnc(N)n4)c(C)c3c2)cc1 [Example 120, Cc1ccc(cc1)C(═O)NCc2ccc3sc(c(C)c3c2)-c4ccnc(N)n4] | < 5 µM | > 5 µM |  | 
Cc1c(-c2ccnc(N)n2)sc2ccc(CNC(=O)c3cccc(O)c3)cc12 [Example 121, Cc1c(sc2ccc(CNC(═O)c3cccc(O)c3)cc12)-c4ccnc(N)n4] | < 5 µM | < 5 µM |  | 
Cc1c(-c2ccnc(N)n2)sc2ccc(CNC(=O)c3ccccc3O)cc12 [Example 122, Cc1c(sc2ccc(CNC(═O)c3ccccc3O)cc12)-c4ccnc(N)n4] | < 5 µM | > 5 µM |  | 
Cc1c(-c2ccnc(N)n2)sc2ccc(CNC(=O)c3ccc(F)cc3)cc12 [Example 123, Cc1c(sc2ccc(CNC(═O)c3ccc(F)cc3)cc12)-c4ccnc(N)n4] | < 5 µM | > 5 µM |  | 
Cc1c(-c2ccnc(N)n2)sc2ccc(CNC(=O)c3cccc(F)c3)cc12 [Example 124, Cc1c(sc2ccc(CNC(═O)c3cccc(F)c3)cc12)-c4ccnc(N)n4] | < 5 µM | > 5 µM |  | 
CCCCCCCC(=O)NCc1ccc2sc(-c3ccnc(N)n3)c(C)c2c1 [Example 125] | < 5 µM | > 5 µM |  | 
Cc1c(-c2ccnc(N)n2)sc2ccc(CNC(=O)c3ccc(C#N)cc3)cc12 [Example 126, Cc1c(sc2ccc(CNC(═O)c3ccc(cc3)C#N)cc12)-c4ccnc(N)n4] | < 5 µM | < 5 µM |  | 
Cc1c(-c2ccnc(N)n2)sc2ccc(CNC(=O)c3cccc(C#N)c3)cc12 [Example 127, Cc1c(sc2ccc(CNC(═O)c3cccc(c3)C#N)cc12)-c4ccnc(N)n4] | < 5 µM | < 5 µM |  | 
CCc1ccc(C(=O)NCc2ccc3sc(-c4ccnc(N)n4)c(C)c3c2)cc1 [Example 137, CCc1ccc(cc1)C(═O)NCc2ccc3sc(c(C)c3c2)-c4ccnc(N)n4] | > 5 µM | > 5 µM |  | 
COc1ccc(C(=O)NCc2ccc3sc(-c4ccnc(N)n4)c(C)c3c2)cc1 [Example 138, COc1ccc(cc1)C(═O)NCc2ccc3sc(c(C)c3c2)-c4ccnc(N)n4] | < 5 µM | > 5 µM |  | 
Cc1c(-c2ccnc(N)n2)sc2ccc(CNC(=O)c3ccccc3Cl)cc12 [Example 147, Cc1c(sc2ccc(CNC(═O)c3ccccc3Cl)cc12)-c4ccnc(N)n4] |  |  | < 5 µM | > 5 µM
